In US8846639B2, “Oligomeric compounds comprising bicyclic nucleosides and having reduced toxicity” (Isis Pharmaceutical, Inc., priority 2008, dated 2014):
Where “and” joins values, the source holds several entries; their conditions need not be identical. Equal values may be shown once.

What was measured:
[1] = Serum ALT, individual animals (Example 16); type: in vivo, mice; settings: four animals
Method: (§1) Mice were divided into 17 groups, with 4 mice in each group. The mice of 16 groups received a single dose, administered i.p., of one of the above oligomeric compounds at a dose of 100, 32, 10, or 3.2 mg/kg. The final group was dosed with phosphate buffered saline (PBS) as a control. The mice were sacrificed 72 hours after administration. Antisense activity was determined by measuring PTEN RNA in liver and is expressed as % reduction compared to PBS control mice.
Toxicity was assessed by measuring alanine aminotranferease (ALT) in serum.

[2] = Body weight at sacrifice relative to pre-dose (Example 16); type: in vivo, mice; settings: 72 h, PBS = 102
Method: as §1
Body weight was measured before treatment and again at sacrifice 72 hours after treatment.

PTEN RNA = PTEN RNA in liver (Example 16 in vivo study); design: species or system mice; settings: for % Reduction PTEN RNA: liver, 72 h, compared to PBS control; for ED50: PTEN RNA in liver
Method: Six week old male Balb/c mice (Jackson Laboratory, Bar Harbor, Me.) were administered a single intraperitoneal (i.p) injection of oligomers as set forth in the table below.
as §1

[3] = Spleen weight as a measure of inflammatory response (Example 16); type: in vivo, mice; settings: for spleen weight, % Control: relative to PBS control
Method: as §1
Spleens were weighed as a measure of inflammatory response.

[4] = Liver transaminase (ALT) levels in serum (Example 14); type: in vivo, mice
Method: (§2) Six week old male Balb/c mice (Jackson Laboratory, Bar Harbor, Me.) were administered a single intraperitoneal (i.p) injection with 4′-CH2—O-2′ BNA containing oligomers (392745 and 392063) and 6(S)-4′-CH(CH3)—O-2′ BNA containing oligomers (392749 and 411847) at a does of 3.2, 10, 32, 66 and 100 mg/kg. Oligomers 392063 and 411847 contain LNA nucleosides with methylated pyrimidines, and oligomers 392745 and 392749 contain LNA nucleosides with non-methylated pyrimidines in the wings. All intemucleoside linkages are phosphorothioates, nucleosides not followed by a subscript are βD-2′-deoxyribonucleosides, nucleosides followed by a subscript 1 are 4′-CH2—O-2′ modified bicyclic nucleosides, nucleosides followed by a subscript S are 6(S)-4′-CH(CH3)—O-2′ modified bicyclic nucleosides wherein S indicates the configuration at the 6 carbon atom and ^MeC indicates a 5′-methyl cytosine nucleoside.
Liver transaminase levels, alanine aminotranferease (ALT) and aspartate aminotransferase (AST), in serum were also measured relative to saline injected mice. Increases in the transaminase levels can indicate hepatotoxicity. The approximate liver transaminase levels are listed below.

PTEN mRNA = PTEN mRNA levels in liver, real-time PCR (Example 14 in vivo study); design: species or system mice; settings: for PTEN mRNA levels (% inhibition): liver, 72 h; for ED50: estimated, Graphpad Prism, dose at which 50% mRNA reduction is observed
Method: as §2
Each dose group consisted of four animals. The mice were sacrificed 72 hours following the final administration to determine the PTEN mRNA levels in liver using real-time PCR and RIBOGREEN® RNA quantification reagent (Molecular Probes, Inc. Eugene, Oreg.) according to standard protocols. PTEN mRNA levels were determined relative to total RNA (using Ribogreen), prior to normalization to saline-treated control. Results are listed below as the average % inhibition of mRNA expression for each treatment group, normalized to saline-injected control.
Estimated ED50 concentrations for each oligomers were calculated using Graphpad Prism. ED50 is the dose at which 50% mRNA reducation is observed.

Substance	ALT levels - Individual animals ([1]; 3.2 mg/kg)	ALT levels - Individual animals ([1]; 10 mg/kg)	ALT levels - Individual animals ([1]; 32 mg/kg)	ALT levels - Individual animals ([1]; 100 mg/kg)	% pre-dose wt ([2]; 3.2 mg/kg) [%]	% pre-dose wt ([2]; 10 mg/kg) [%]	% pre-dose wt ([2]; 32 mg/kg) [%]	% pre-dose wt ([2]; 100 mg/kg) [%]	% Reduction PTEN RNA (PTEN RNA; 3.2 mg/kg single i.p.) [%]	% Reduction PTEN RNA (PTEN RNA; 10 mg/kg single i.p.) [%]	% Reduction PTEN RNA (PTEN RNA; 32 mg/kg single i.p.) [%]	% Reduction PTEN RNA (PTEN RNA; 100 mg/kg single i.p.) [%]	ED50 (PTEN RNA) [mg/kg]	spleen weight, % Control ([3]; 3.2 mg/kg) [%]	spleen weight, % Control ([3]; 10 mg/kg) [%]	spleen weight, % Control ([3]; 32 mg/kg) [%]	spleen weight, % Control ([3]; 100 mg/kg) [%]	ALT levels ([4]; 3.2 mg/kg, serum, saline = 24) [IU/L]	ALT levels ([4]; 10 mg/kg, serum, saline = 24) [IU/L]	ALT levels ([4]; 32 mg/kg, serum, saline = 24) [IU/L]	other results
^mCxs Txs Tds Ads Gds Cds Ads Cds Tds Gds Gds Cds ^mCxs Tx [ISIS 445545]	20 IU/L and 34 IU/L (2×) and 31 IU/L	79 IU/L and 19 IU/L and 28 IU/L and 18 IU/L	22 IU/L and 45 IU/L and 24 IU/L and 47 IU/L	102 IU/L and 135 IU/L and 277 IU/L and 85 IU/L	100	102	101	102	21	55	87	92	7.7	100	99	134	139				spleen weight compared to control and to the non-methylated compound ([3]; mouse, in vivo): increase in spleen weight
Cxs Uxs Tds Ads Gds Cds Ads Cds Tds Gds Gds Cds Cxs Ux [ISIS 445544]	21 IU/L and 28 IU/L and 30 IU/L and 36 IU/L	23 IU/L and 33 IU/L and 20 IU/L and 36 IU/L	23 IU/L and 38 IU/L and 19 IU/L and 22 IU/L	977 IU/L and 1061 IU/L and 88 IU/L and 133 IU/L	103	101	102	98	31	72	93	95	4.9	98	92	101	109				
^MeCSTSTAGCACTGGC^MeCSTS [ISIS 411847]																		26	27	16	ALT levels ([4]; 66 mg/kg, serum, saline = 24): 279 IU/L; ALT levels ([4]; 100 mg/kg, serum, saline = 24): 2816 IU/L; ALT level decrease as compared to 392063 treatment ([4]; dose not stated): about 5 fold; PTEN mRNA levels (% inhibition) (PTEN mRNA; 3.2 mg/kg single i.p.): 0%; PTEN mRNA levels (% inhibition) (PTEN mRNA; 10 mg/kg single i.p.): 32%; PTEN mRNA levels (% inhibition) (PTEN mRNA; 32 mg/kg single i.p.): 87%; PTEN mRNA levels (% inhibition) (PTEN mRNA; 66 mg/kg single i.p.): 84%; PTEN mRNA levels (% inhibition) (PTEN mRNA; 100 mg/kg single i.p.): 92%; ED50 (PTEN mRNA): 12 mg/kg
^mCjs Tjs Tds Ads Gds Cds Ads Cds Tds Gds Gds Cds ^mCjs Tj [ISIS 443394]	28 IU/L and 26 IU/L and 30 IU/L and 69 IU/L	55 IU/L and 28 IU/L and 32 IU/L (2×)	55 IU/L and 25 IU/L (2×) and 28 IU/L	23 IU/L (2×) and 44 IU/L and 18 IU/L	102	102	101	101	16	39	68	89	13.5	106	96	97	98				
CSUSTAGCACTGGCCSUS [ISIS 392749]																		18	24	14	ALT levels ([4]; 66 mg/kg, serum, saline = 24): 18 IU/L; ALT levels ([4]; 100 mg/kg, serum, saline = 24): 33 IU/L; ALT levels ([4]; all doses): not elevated to a level indicative of hepatotoxicity; PTEN mRNA levels (% inhibition) (PTEN mRNA; 3.2 mg/kg single i.p.): 14%; PTEN mRNA levels (% inhibition) (PTEN mRNA; 10 mg/kg single i.p.): 20%; PTEN mRNA levels (% inhibition) (PTEN mRNA; 32 mg/kg single i.p.): 81%; PTEN mRNA levels (% inhibition) (PTEN mRNA; 66 mg/kg single i.p.): 92%; PTEN mRNA levels (% inhibition) (PTEN mRNA; 100 mg/kg single i.p.): 93%; ED50 (PTEN mRNA): 15 mg/kg
Cjs Uos Tds Ads Gds Cds Ads Cds Tds Gds Gds Cds Cjs Uj [ISIS 443393]	19 IU/L and 36 IU/L and 83 IU/L and 20 IU/L	26 IU/L and 33 IU/L and 30 IU/L and 29 IU/L	21 IU/L and 24 IU/L and 53 IU/L (2×)	16 IU/L and 22 IU/L and 42 IU/L and 23 IU/L	101	104	99	98	10	35	64	91	16.2	89	96	110	96				
